Laboratory results: patent publication US20100305098A1, “METHODS OF USE” (priority 2007, published 2010)

How the values were obtained:
CIA mouse = experiment: Suppression of arthritis development in CIA; assay type: in vivo
Text: Suppression of arthritis development in CIA. DBA1/J mice were immunized with bCII/CFA at day 0 then boosted at day 21 with bCII/IFA. Arthritis development was monitored over the course of study. The arthritis score is as follows: 0=normal paw, score of 1=1-2 digit inflamed paws; score of 2=3 digits or 1-2 digit+wrist or ankle inflamed, score of 3=hand+more than 2 digits inflamed; and score of 4=multiple digits (3-4)+important wrist or ankle inflammation.
(A) Partial therapeutic evaluation of compounds. Active compound was given by oral dosing once daily at the dose indicated from day 20 after induction of antibodies to collagen II but before disease development. (B) Full therapeutic evaluation of compound. Active compound was given after disease was developed (from day 7 after the second immunization). (C) X-ray analysis of mouse paws from full therapeutic CIA study. X-ray score is the index of measurement of combination of osteopenia, bone erosion and new bone formation. (D) Representative X-ray radiographs.
Collagen induced arthritis model. Male DBA/1 mice were immunized intradermally at the base of the tail with 0.1 ml emulsion, containing 150 μg bovine type II collagen emulsified in Freund's complete adjuvant. Three weeks after 1st immunization, all mice were boosted with bovine type II collagen emulsified in Freund's incomplete adjuvant. The severity of arthritic symptoms in the paws of each mouse was graded according to Wood et al. in accordance with known techniques.
Several studies were performed in the mouse CIA model to evaluate anti-arthritic effects of ER-819924-01. Initially ER-819924-01 was studied in a partial therapeutic dosing regimen in which compounds were orally administered daily from day 20 (i.e. after induction of pathogenic anti-type II collagen antibodies, but before arthritis development). Arthritis score (measured as an inflammatory response index of inflamed paw) and body weight were monitored over two weeks. […] We also studied ER-819924-01 in a full therapeutic dosing regimen in which compounds were dosed after the induction of disease.

GAL1 = biological target: T1, GAL1 (Homo sapiens, UniProt P47211); experiment: FLIPR functional screen; assay type: cell-based; settings: antagonist mode
T1 construct: Millipore

5-HT2B = biological target: T2, 5-HT2B (Homo sapiens, UniProt P41595); experiment: FLIPR functional screen; assay type: cell-based; settings: antagonist mode
T2 construct: purchased Millipore (outsourced screen)

M5 = biological target: T3, M5 (Homo sapiens, UniProt P08912); experiment: FLIPR functional screen; assay type: cell-based; settings: antagonist mode
T3 construct: Millipore

PAF = biological target: T4, PAF (Homo sapiens, UniProt P25105); experiment: FLIPR functional screen; assay type: cell-based; settings: antagonist mode
T4 construct: Millipore

CRTH2 = biological target: T5, CRTH2 (Homo sapiens, UniProt Q9Y5Y4); experiment: FLIPR functional screen; assay type: cell-based; settings: antagonist mode
T5 construct: Millipore

CRF1 = biological target: T6, CRF1 (Homo sapiens, UniProt P34998); experiment: FLIPR functional screen; assay type: cell-based; settings: antagonist mode
T6 construct: Millipore

S1P3 = biological target: T7, S1P3 (Homo sapiens, UniProt Q99500); experiment: FLIPR functional screen; assay type: cell-based; settings: antagonist mode
T7 construct: Millipore

CYSLT1 = biological target: T8, CYSLT1 (Homo sapiens, UniProt Q9Y271); experiment: FLIPR functional screen; assay type: cell-based; settings: antagonist mode
T8 construct: Millipore

GCGR = biological target: T9, GCGR (Homo sapiens, UniProt P47871); experiment: FLIPR functional screen; assay type: cell-based; settings: antagonist mode
T9 construct: Millipore

FPR1 = biological target: T10, FPR1 (Homo sapiens, UniProt P21462); experiment: FLIPR functional screen; assay type: cell-based; settings: antagonist mode
T10 construct: Millipore

EP4 = biological target: T11, EP4 (Homo sapiens, UniProt P35408); experiment: PGE2 induced CRE-PLAP reporter assay in SE302 cells; assay type: cell-based; settings: read-out: IC50 against PGE2 induced CRE-PLAP reporter activity
T11 construct: SE302 cells that express endogenous EP4; endogenous in cells; host or cells: SE302 cells
Method: CRE-PLAP reporter assay. SE302 cells that express endogenous EP4 were stimulated with PGE2 in the presence or absence of ER-819762 for overnight, and PLAP activity was measured.

PRP = biological target: T12, PRP (Homo sapiens, UniProt P49683); experiment: FLIPR functional screen; assay type: cell-based; settings: antagonist mode
T12 construct: Millipore

PK1 = biological target: T13, PK1 (Homo sapiens, UniProt Q8TCW9); experiment: FLIPR functional screen; assay type: cell-based; settings: PK-1, antagonist mode
T13 construct: Millipore

LPA3 = biological target: T14, LPA3 (Homo sapiens, UniProt Q9UBY5); experiment: FLIPR functional screen; assay type: cell-based; settings: antagonist mode
T14 construct: Millipore

CGRP1 = biological target: T15, CGRP1 (Homo sapiens, UniProt O60894+Q16602); experiment: FLIPR functional screen; assay type: cell-based; settings: antagonist mode
T15 construct: Millipore

S1P4 = biological target: T16, S1P4 (Homo sapiens, UniProt O95977); experiment: FLIPR functional screen; assay type: cell-based; settings: antagonist mode
T16 construct: Millipore

M1 = biological target: T17, M1 (Homo sapiens, UniProt P11229); experiment: FLIPR functional screen; assay type: cell-based; settings: antagonist mode
T17 construct: Millipore

NMU1 = biological target: T18, NMU1 (Homo sapiens, UniProt Q9HB89); experiment: FLIPR functional screen; assay type: cell-based; settings: antagonist mode
T18 construct: Millipore

SST4 = biological target: T19, SST4 (Homo sapiens, UniProt P31391); experiment: FLIPR functional screen; assay type: cell-based; settings: antagonist mode
T19 construct: Millipore

5-HT2A = biological target: T20, 5-HT2A (Homo sapiens, UniProt P28223); experiment: FLIPR functional screen; assay type: cell-based; settings: antagonist mode
T20 construct: purchased Millipore (outsourced screen)

GPR68 = biological target: T21, GPR68 (Homo sapiens, UniProt Q15743); experiment: FLIPR functional screen; assay type: cell-based; settings: antagonist mode
T21 construct: Millipore

GAL2 = biological target: T22, GAL2 (Homo sapiens, UniProt O43603); experiment: FLIPR functional screen; assay type: cell-based; settings: antagonist mode
T22 construct: Millipore

BB3 = biological target: T23, BB3 (Homo sapiens, UniProt P32247); experiment: FLIPR functional screen; assay type: cell-based; settings: antagonist mode
T23 construct: Millipore

A1 = biological target: T24, A1 (Homo sapiens, UniProt P30542); experiment: FLIPR functional screen; assay type: cell-based; settings: antagonist mode
T24 construct: purchased Millipore (outsourced screen)

NK2 = biological target: T25, NK2 (Homo sapiens, UniProt P21452); experiment: FLIPR functional screen; assay type: cell-based; settings: antagonist mode
T25 construct: Millipore

MC4 = biological target: T26, MC4 (Homo sapiens, UniProt P32245); experiment: FLIPR functional screen; assay type: cell-based; settings: antagonist mode
T26 construct: Millipore

CXCR4 = biological target: T27, CXCR4 (Homo sapiens, UniProt P61073); experiment: FLIPR functional screen; assay type: cell-based; settings: antagonist mode
T27 construct: Millipore

GABA = biological target: T28, GABA (Homo sapiens, UniProt Q9UBS5); experiment: FLIPR functional screen; assay type: cell-based; settings: antagonist mode
T28 construct: Millipore
T28 sequence (Q9UBS5 15-961 limits assumed): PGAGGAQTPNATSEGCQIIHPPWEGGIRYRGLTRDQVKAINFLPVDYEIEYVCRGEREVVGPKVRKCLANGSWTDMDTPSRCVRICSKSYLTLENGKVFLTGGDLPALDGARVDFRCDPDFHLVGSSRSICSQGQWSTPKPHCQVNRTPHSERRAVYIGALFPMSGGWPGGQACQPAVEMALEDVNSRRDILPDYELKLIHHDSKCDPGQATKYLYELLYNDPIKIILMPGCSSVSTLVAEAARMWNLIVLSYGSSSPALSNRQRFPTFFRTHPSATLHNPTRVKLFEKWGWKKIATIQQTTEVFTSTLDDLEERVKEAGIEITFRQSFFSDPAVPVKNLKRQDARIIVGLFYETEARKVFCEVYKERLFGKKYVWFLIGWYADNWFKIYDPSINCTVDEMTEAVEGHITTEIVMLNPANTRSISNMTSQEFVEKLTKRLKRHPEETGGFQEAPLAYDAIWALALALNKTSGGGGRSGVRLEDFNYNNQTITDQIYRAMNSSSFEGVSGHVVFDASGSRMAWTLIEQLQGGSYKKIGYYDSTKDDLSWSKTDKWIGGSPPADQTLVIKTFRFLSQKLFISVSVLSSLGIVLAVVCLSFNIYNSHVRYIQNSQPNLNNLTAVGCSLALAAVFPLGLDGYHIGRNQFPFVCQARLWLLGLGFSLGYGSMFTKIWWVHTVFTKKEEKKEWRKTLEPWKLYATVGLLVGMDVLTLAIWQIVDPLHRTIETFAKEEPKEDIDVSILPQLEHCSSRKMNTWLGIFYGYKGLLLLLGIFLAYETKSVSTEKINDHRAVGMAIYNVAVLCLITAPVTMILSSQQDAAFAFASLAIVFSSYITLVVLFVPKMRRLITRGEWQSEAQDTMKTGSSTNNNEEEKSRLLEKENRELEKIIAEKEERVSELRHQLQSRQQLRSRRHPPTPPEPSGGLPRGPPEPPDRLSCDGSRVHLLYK
T28 sequence (O75899 42-941 partner): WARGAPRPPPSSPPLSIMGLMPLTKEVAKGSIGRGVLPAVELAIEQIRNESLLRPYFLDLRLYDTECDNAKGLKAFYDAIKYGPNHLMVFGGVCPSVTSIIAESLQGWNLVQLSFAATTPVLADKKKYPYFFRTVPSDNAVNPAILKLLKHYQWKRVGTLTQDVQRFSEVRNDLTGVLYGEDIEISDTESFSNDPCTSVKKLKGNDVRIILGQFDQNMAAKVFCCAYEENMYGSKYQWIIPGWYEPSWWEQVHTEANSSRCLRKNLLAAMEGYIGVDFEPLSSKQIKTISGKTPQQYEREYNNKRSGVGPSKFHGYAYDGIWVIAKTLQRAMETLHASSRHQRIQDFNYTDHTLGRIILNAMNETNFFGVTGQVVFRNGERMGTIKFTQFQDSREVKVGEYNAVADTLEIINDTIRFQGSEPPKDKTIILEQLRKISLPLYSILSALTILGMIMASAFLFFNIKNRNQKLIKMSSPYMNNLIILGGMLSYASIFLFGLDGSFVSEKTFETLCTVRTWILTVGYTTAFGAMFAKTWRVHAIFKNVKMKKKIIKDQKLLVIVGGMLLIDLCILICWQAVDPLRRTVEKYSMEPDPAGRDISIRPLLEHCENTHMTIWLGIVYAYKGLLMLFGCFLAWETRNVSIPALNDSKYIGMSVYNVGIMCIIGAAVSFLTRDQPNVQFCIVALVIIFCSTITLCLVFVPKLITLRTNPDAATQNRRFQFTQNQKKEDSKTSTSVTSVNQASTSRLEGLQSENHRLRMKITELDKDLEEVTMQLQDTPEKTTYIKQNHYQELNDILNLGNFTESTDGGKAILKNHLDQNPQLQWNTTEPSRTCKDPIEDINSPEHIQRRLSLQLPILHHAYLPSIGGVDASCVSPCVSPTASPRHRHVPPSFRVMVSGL

T16 sequence (O95977 whole entry, species assumed): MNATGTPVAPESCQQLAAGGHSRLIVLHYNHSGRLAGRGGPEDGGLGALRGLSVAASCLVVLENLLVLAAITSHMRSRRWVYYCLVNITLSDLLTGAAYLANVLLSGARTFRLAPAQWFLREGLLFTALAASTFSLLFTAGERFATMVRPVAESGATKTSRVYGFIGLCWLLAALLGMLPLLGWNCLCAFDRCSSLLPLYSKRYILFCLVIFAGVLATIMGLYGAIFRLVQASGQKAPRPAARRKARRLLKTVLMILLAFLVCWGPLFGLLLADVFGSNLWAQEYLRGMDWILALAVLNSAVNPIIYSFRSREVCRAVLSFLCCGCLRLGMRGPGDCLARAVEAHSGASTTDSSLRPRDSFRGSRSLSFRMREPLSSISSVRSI
T4 sequence (P25105 whole entry): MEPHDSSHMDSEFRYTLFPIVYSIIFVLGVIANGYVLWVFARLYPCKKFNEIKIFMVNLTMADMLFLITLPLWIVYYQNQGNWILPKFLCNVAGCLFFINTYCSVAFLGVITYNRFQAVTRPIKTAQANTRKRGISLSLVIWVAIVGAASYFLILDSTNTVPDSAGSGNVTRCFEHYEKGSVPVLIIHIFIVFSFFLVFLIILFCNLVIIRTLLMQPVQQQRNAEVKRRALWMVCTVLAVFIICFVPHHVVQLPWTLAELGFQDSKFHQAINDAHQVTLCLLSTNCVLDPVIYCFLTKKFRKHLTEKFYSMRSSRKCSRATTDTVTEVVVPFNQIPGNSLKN
T2 sequence (P41595 whole entry): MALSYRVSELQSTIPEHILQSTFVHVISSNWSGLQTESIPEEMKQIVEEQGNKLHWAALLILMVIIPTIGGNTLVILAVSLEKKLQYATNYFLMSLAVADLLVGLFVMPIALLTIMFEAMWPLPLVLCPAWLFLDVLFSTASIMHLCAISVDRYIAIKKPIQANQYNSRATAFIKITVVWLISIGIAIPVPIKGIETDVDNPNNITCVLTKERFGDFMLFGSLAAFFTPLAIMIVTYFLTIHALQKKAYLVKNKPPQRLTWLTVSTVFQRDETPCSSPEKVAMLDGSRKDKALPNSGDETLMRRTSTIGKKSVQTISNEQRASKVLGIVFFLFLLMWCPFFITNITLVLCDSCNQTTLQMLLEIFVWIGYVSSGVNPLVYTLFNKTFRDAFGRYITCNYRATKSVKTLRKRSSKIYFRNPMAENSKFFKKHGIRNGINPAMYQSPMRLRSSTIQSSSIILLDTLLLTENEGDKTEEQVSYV
T20 sequence (P28223 whole entry): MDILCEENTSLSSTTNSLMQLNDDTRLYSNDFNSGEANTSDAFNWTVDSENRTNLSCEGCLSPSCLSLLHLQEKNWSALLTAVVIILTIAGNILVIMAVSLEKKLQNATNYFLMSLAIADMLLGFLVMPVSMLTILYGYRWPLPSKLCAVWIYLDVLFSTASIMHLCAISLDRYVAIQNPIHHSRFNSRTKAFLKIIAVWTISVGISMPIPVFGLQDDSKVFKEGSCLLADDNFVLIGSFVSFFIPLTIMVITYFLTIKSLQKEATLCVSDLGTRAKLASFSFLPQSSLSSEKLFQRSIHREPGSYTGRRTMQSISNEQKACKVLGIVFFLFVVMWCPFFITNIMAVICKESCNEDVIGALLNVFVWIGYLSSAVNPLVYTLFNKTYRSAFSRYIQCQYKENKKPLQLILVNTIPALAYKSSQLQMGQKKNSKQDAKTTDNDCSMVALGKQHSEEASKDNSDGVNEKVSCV
T7 sequence (Q99500 whole entry, species assumed): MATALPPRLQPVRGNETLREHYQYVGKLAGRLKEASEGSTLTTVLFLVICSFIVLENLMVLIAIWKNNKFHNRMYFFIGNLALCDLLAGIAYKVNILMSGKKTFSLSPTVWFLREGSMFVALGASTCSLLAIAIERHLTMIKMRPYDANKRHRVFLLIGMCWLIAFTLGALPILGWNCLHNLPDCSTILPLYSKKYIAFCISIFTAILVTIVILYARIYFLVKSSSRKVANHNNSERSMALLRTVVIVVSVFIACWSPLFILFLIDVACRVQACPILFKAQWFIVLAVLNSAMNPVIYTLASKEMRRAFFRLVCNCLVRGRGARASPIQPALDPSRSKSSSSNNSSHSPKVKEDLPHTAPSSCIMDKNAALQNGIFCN
T10 sequence (P21462 whole entry, species assumed): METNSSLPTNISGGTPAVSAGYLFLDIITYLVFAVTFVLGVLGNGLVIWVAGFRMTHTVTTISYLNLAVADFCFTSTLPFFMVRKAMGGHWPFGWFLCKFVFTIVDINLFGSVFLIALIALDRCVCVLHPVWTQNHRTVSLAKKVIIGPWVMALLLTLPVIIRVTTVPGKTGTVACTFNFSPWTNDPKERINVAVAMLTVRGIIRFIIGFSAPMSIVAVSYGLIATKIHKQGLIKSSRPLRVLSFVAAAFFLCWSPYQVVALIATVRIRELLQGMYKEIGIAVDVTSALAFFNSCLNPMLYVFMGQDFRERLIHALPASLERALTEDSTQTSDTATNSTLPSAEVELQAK
T12 sequence (P49683 whole entry): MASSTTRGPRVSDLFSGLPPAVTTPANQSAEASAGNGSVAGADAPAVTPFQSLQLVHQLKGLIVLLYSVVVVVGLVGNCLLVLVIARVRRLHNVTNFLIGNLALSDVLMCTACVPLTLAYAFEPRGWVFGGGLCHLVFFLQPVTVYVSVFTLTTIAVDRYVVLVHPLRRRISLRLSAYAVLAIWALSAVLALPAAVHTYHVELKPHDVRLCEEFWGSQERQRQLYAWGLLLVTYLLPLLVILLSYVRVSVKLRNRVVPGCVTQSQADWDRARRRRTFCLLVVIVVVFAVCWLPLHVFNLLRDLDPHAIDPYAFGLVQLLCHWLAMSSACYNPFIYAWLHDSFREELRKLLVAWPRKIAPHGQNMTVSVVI
T14 sequence (Q9UBY5 whole entry, species assumed): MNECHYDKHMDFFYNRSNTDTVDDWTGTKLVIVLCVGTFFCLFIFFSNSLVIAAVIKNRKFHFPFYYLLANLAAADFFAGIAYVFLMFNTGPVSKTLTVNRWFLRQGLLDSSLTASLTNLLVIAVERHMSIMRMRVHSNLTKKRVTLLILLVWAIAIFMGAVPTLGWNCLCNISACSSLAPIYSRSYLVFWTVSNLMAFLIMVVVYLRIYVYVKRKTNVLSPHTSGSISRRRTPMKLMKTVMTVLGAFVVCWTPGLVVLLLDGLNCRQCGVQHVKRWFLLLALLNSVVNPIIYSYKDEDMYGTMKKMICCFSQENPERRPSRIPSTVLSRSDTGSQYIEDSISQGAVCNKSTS

For `CCN1C(=O)N2Cc3cc(OC)cc(OC)c3[C@@H](C)C=C2C12CCN(Cc1cccn1C)CC2` [ER-819924-01], the X-ray score (CIA mouse; 30 mg/kg, separate study) was “significantly improved X-ray score”, the ED50 (CIA mouse; Mus musculus, 480 h, partial therapeutic dosing, oral daily from day 20) was about 10 mg/kg and the “arthritis development under full therapeutic dosing” value (CIA mouse; dosed after induction of disease, 10 mg/kg) was “effectively prevented further arthritis development”. The inhibition at 1 µM (GAL1) was 9.1%, the inhibition at 1 µM (5-HT2B) was 11.3% and the inhibition at 1 µM (M5) was 10.1%. It also gave an inhibition at 1 µM (PAF) of 5.4%, an inhibition at 1 µM (CRTH2) of 4.1% and an inhibition at 1 µM (CRF1) of 3.9%. For the same compound, the inhibition at 1 µM (S1P3) was 8.9%, the inhibition at 1 µM (CYSLT1) was -1.6% and the inhibition at 1 µM (GCGR) was 8.6%. The inhibition at 1 µM (FPR1) was 8%, the IC50 (EP4) was 28 nM and the inhibition at 1 µM (PRP) was 5.4%. For the same compound, the inhibition at 1 µM (PK1) was -4.3%, the inhibition at 1 µM (LPA3) was 9.6% and the inhibition at 1 µM (CGRP1) was -5.6%. It also gave an inhibition at 1 µM (S1P4) of -6.6%, an inhibition at 1 µM (M1) of 3.6% and an inhibition at 1 µM (NMU1) of -14%. For the same compound, the inhibition at 1 µM (SST4) was -2.8%, the inhibition at 1 µM (5-HT2A) was 8.8% and the inhibition at 1 µM (GPR68) was 13.4%. For the same compound, the inhibition at 1 µM (GAL2) was 8.1%, the inhibition at 1 µM (BB3) was 6.2% and the inhibition at 1 µM (A1) was 2.2%. It also gave an inhibition at 1 µM (NK2) of 2.1%, an inhibition at 1 µM (MC4) of -5.1% and an inhibition at 1 µM (CXCR4) of -11.8%. It also gave an inhibition at 1 µM (GABA) of 6%.
